Where “and” joins values, the source holds several entries; their conditions need not be identical. Identical values can stand only once. Like-named read-outs stand apart in the source and are kept apart here.
Experiments:
[1] = system: GX_P2V; assay: organism not typed; format: cell-based, Guangxi pangolin-CoV (GX_P2V); conditions: for inhibition at 0.49485 µM / inhibition at 0.79588 µM / inhibition at 1.09691 µM / inhibition at 1.39794 µM / inhibition at 1.69897 µM / inhibition at 0.193125 µM / inhibition at 0.39 µM / inhibition at 0.78 µM: Vero C1008, 48 h, read-out: Percentage of Inhibition (%)
[2] = system: SARS-CoV-2 pseudotyped virus; assay: microbe, parasite or virus in culture; format: cell-based
[3] = system: SARS-CoV-2 live virus (SARS-CoV-2/WH-09/human/2020/CHN); assay: microbe, parasite or virus in culture; format: cell-based
[4] = system: PEDV strain CV777; assay: microbe, parasite or virus in culture; format: cell-based, porcine epidemic diarrhea virus (PEDV)
[5] = system: SADS-CoV strain CN/GDWT/2017; assay: cells; format: cell-based, swine acute diarrhoea syndrome coronavirus (SADS-CoV)
[6] = system: SARS-CoV pseudotyped virus; assay: microbe, parasite or virus in culture; format: cell-based; conditions: for EC50: read-out: EC50 against SARS-CoV pseudotyped virus
[7] = system: MERS-CoV pseudotyped virus; assay: microbe, parasite or virus in culture; format: cell-based
[8] = system: GX_P2V; assay: organism not typed; format: cell-based, Guangxi pangolin-CoV (GX_P2V)
[9] = system: SARS-CoV-2 trVLP; format: cell-based
[10] = system: SARS-CoV-2 trVLP
[11] = system: Huh 7 cells
[12] = in vitro; conditions: African green monkey
[13] = in vitro; conditions: human, Caco-2
[14] = in vitro; conditions: human
[15] = system: SARS-CoV-2 trVLP; assay: microbe, parasite or virus in culture
[16] = Vero C1008, read-out: EC50 GX_P2V
[17] = Severe acute respiratory syndrome coronavirus 2, read-out: EC50 SARS-CoV-2pseudotypedvirus
[18] = Severe acute respiratory syndrome coronavirus 2, Vero C1008, read-out: SARS-CoV-2 (Vero E6) EC50
[19] = Porcine epidemic diarrhea virus, Huh-7, read-out: EC50 against PEDV
[20] = Huh-7, read-out: EC50 against SADS-CoV
[21] = Severe acute respiratory syndrome coronavirus
[22] = Middle East respiratory syndrome-related coronavirus, Huh-7, read-out: EC50 against MERS-CoV pseudotyped virus
[23] = CC50, cytotoxicity to Huh 7 cells (Fig. 4B, SADS-CoV panel)
[24] = Severe acute respiratory syndrome coronavirus 2, read-out: EC50 SARS-CoV-2 trVLP
[25] = Severe acute respiratory syndrome coronavirus 2, Vero C1008, read-out: EC50 against diverse SARS-CoV-2-related viruses (summary statement)
[26] = Vero C1008, read-out: EC50 against GX_P2V
[27] = Severe acute respiratory syndrome coronavirus 2, 24 h, read-out: EC50 against SARS-CoV-2 pseudotyped virus

Molecule | Time of addition of anti-GX_P2V activity, Entry [8] | Time of addition of anti-GX_P2V activity, Full-time [8] | Time of addition of anti-GX_P2V activity, Post-entry [8] | Time of addition of anti-SARS-CoV-2 trVLPs activity, Entry [9] | Time of addition of anti-SARS-CoV-2 trVLPs activity, Full-time [9] | Time of addition of anti-SARS-CoV-2 trVLPs activity, Post-entry [9] | SI (SARS-CoV-2 trVLP, Caco 2-N) [10] | inhibition at 0.49485 µM [1] [%] | inhibition at 0.79588 µM [1] [%] | inhibition at 1.09691 µM [1] [%] | EC50 [3, 18] [µM] | EC50 [4, 19] [µM] | EC50 [5, 20] [µM] | EC50 [6, 21] [µM] | EC50 [7, 22] [µM] | CC50 at 48 h [12] [µM] | CC50 at 48 h [13] [µM] | CC50 [14] [µM] | CC50 [14, 23] [µM] | EC50 [15, 24] [µM] | also measured
cycleanine | 60.950 and 60.215 and 58.803 | 92.758 and 93.389 and 93.191 | 62.451 and 61.926 and 63.133 | 37.174 and 37.913 and 46.924 | 60.248 and 61.546 and 62.312 | 56.735 and 54.305 and 57.336 | > 32.68 | – | – | – | – | – | – | – | – | – | – | – | – | – | Percentage of Inhibition (%) [1]: 100%; EC50 ([1]; read-out: EC50 against GX_P2V): 1.49 µM; EC50 ([2]; read-out: EC50 SARS-CoV-2pseudotypedvirus): 6.54 µM; EC50 ([3]; read-out: SARS-CoV-2 (Vero E6) EC50): 8.91 µM; EC50 ([4]; read-out: EC50 against PEDV): 0.34 µM; EC50 ([5]; read-out: EC50 against SADS-CoV): 2.77 µM; EC50 [6]: 3.2 µM; EC50 ([7]; read-out: EC50 against MERS-CoV pseudotyped virus): 2.45 µM; EC50 ([10]; read-out: EC50 SARS-CoV-2 trVLP): 1.53 µM; CC50 [11]: > 12.5 µM
COc1ccc2cc1Oc1ccc(cc1)C[C@H]1c3cc(c(OC)cc3CCN1C)Oc1c(OC)c(OC)cc3c1[C@H](C2)N(C)CC3 [Tetrandrine, reference compound] | 99.931 and 99.920 | 99.968 and 99.974 and 99.976 | 99.868 and 99.847 and 99.852 | 36.455 and 44.889 and 48.206 | 99.957 and 99.767 and 99.878 | 89.364 and 97.266 and 89.859 | > 17.86 | 11.3 | 70.2 | 100 | 3.13 | 0.44 | 2.19 | 3.04 | 2.17 | 21.9 | > 50 | 11.7 | > 12.5 | 2.8 | inhibition at 1.39794 µM [1]: 100%; inhibition at 1.69897 µM [1]: 100%; EC50 [1, 16]: 5.21 µM; EC50 [2, 17]: 3.2 µM; Percentage of Inhibition (%) [6]: 99.687%; Percentage of Inhibition (%) [7]: 99.674% and 99.511%; CC50 [12]: 21.9 µM
COc1ccc2cc1Oc1ccc(cc1)C[C@H]1c3c(cc4c(c3Oc3cc5c(cc3OC)CCN(C)[C@@H]5C2)OCO4)CCN1C [Cepharanthine, reference compound] | 88.370 and 86.873 and 86.696 | 99.145 and 99.093 and 99.139 | 88.656 and 88.646 and 88.662 | 63.189 and 64.430 and 67.089 | 95.064 and 95.621 and 95.146 | 74.095 and 72.335 and 71.421 | > 31.25 | 77.8 | 96.7 | 100 | 2.19 | 0.2 | 1.03 | 1.37 | 2.19 | > 12.5 | > 50 | 11 | > 12.5 | 1.6 | EC50 [1, 25]: < 2 µM; inhibition at 0.193125 µM [1]: 46.4%; inhibition at 0.39 µM [1]: 20.4%; EC50 [1, 26]: 1.78 µM; EC50 [2, 27]: 0.74 µM; Percentage of Inhibition (%) [4]: 99.988%; EC50 ([5]; Huh-7, read-out: EC50 SADS): 0.4 µM; Percentage of Inhibition (%) [6]: 99.382% and 89.647%; Percentage of Inhibition (%) [7]: 24.735%
COc1ccc2cc1Oc1ccc(cc1)C[C@H]1c3cc(c(OC)cc3CCN1C)Oc1c(O)c(OC)cc3c1[C@H](C2)N(C)CC3 [Fangchinoline, fangchinoline] | 98.527 and 98.293 and 98.495 | 99.636 and 99.587 and 99.561 | 96.715 and 95.065 and 93.301 | 64.788 and 62.324 and 70.383 | 98.422 and 98.513 and 99.025 | 80.036 and 76.348 and 75.577 | 24.05 | 97.5 | 95.4 | 100 | 5.01 | 0.2 | 2.23 | 1.73 | 4.47 | > 12.5 | 46.4 | 12.3 | > 12.5 | 1.93 | EC50 [1, 25]: < 2 µM; inhibition at 0.39 µM [1]: 21%; inhibition at 0.78 µM [1]: 14%; EC50 [1, 16]: 1.97 µM; Percentage of Inhibition (%), SARS-CoV-2 pseudotyped virus [2]: 100%; EC50 [2, 27]: 1.16 µM; Percentage of Inhibition (%) [10]: 100%
COc1cc2c3cc1Oc1c(OC)c(OC)cc4c1[C@@H](Cc1ccc(O)c(c1)Oc1ccc(cc1)C[C@@H]3N(C)CC2)N(C)CC4 [Berbamine, berbamine] | 53.007 and 53.569 and 52.218 | 99.845 and 99.848 and 99.866 | 93.479 and 93.373 and 93.128 | 49.832 and 46.966 and 50.173 | 90.853 and 91.022 and 89.926 | 85.087 and 83.404 and 83.155 | > 6.13 | – | 33.8 | 96.4 | 19.9 | 0.5 | 5.84 | 5.55 | 3.37 | > 50 | > 50 | – | > 25 | 8.15 | inhibition at 1.39794 µM [1]: 100%; inhibition at 1.69897 µM [1]: 100%; EC50 [1, 16]: 6.92 µM; EC50 [2, 27]: 1.87 µM; EC50 ([5]; Huh-7, read-out: EC50 SADS): 3.33 µM; CC50 at 48 h [14]: > 25 µM
COc1cc2c(cc1O)[C@@H](Cc1ccc(O)c(Oc3ccc(C[C@@H]4c5cc(OC)c(OC)cc5CCN4C)cc3)c1)N(C)CC2 [Daurisoline, daurisoline] | 73.500 and 68.250 and 70.810 | 99.980 | 90.220 and 88.260 and 87.780 | 21.082 and 20.351 and 25.494 | 69.364 and 69.350 and 65.328 | 59.015 and 61.872 and 61.323 | > 35.21 | – | – | – | 12.5 | 0.82 | 2.8 | 2.76 | 2.46 | > 50 | > 50 | > 12.5 | – | – | inhibition at 0.193125 µM [1]: 6.47%; inhibition at 0.78 µM [1]: 63%; inhibition at 1.39794 µM [1]: 100%; inhibition at 1.69897 µM [1]: 100%; EC50 [1, 26]: ~14.1 µM; EC50 ([1]; Vero C1008, read-out: EC50 against GX_P2V, repeated experiment): 10.6 µM; EC50 [2, 17]: 8.48 µM; inhibition at 6.25 µM ([8]; Vero C1008, read-out: Inhibition against GX_P2V, full-time treatment): ~100%; EC50 ([15]; Severe acute respiratory syndrome coronavirus 2, read-out: EC50 against SARS-CoV-2 trVLP): 1.42 µM

Reference: article PMC10879537 (Nature Communications, 2024)
